Reference: patent US9012483B2, “Use of L-Histidine and derivatives thereof” (priority 2011, dated 2015)
“Also recorded” adds a separate entry of the source. Like-named read-outs stand apart in the source and are kept apart here. Marks after values point to notes of the source that are not given here.

Tests used:
[1] = Pharmacokinetics of histidine in plasma after oral administration; format: in vivo, CD(SD)IGS BR rat; settings: for Tmax / AUC(0-inf) / Cmax: male, CD(SD)IGS BR; for Tmax / AUC(0-inf) / Cmax / t1/2λz: rat plasma; for total plasma clearance: rat
Method: Aliquots of L-Histidine dihydrochloride powder, accurately weighted, were transferred into 5 and 10 mL volumetric flasks. MilliQ-water was used to dissolve the powder. Standard solution was prepared to obtain CAL samples and CQ samples. The range of the stock standard solution was from 3.46 to 343 μg/mL. All standard solutions were stored at +4° C., in the dark: under these conditions they were considered stable for up to one month.
CAL samples were prepared by using the standard solution at the concentration of 3.46, 34.3, 68.6, 173 and 343 μg/mL and QC samples by using the standard solution at the concentration of 14.3, 67.1, 143 and 268 μg/mL.
CAL and QC samples were prepared by mixing 10 μL of Histidine standard solution with […] of blank rat plasma.
(§1) To these samples 20 μL of trichloroacetic acid (16% w/v) were added to precipitate the plasma proteins. The tubes were vortexed for few seconds and centrifuged for 10 min at 2000 g at room temperature; to 90 μL of the clear supernatant 45 μL of a soaked solution of Sodium carbonate (200 mM) and 90 μL of derivatizing solution (4 mg/mL of Dansyl chloride) were added. The tubes were vortexed for few seconds and incubated under stirring for 30 minutes at 60° C. Five microliters of Methylamine Hydrochloride were added and after cooling for 15 minutes, ten microliters of the sample were injected into the HPLC equipment.
as §1, with “Test plasma samples (S) were prepared by adding 10 μL of Milli-Q water to 90 μL of undiluted plasma or 90 μL of plasma suitably diluted with blank plasma (if sample volume was not enough). To” for “To”, “equipment. All plasma samples collected during the study were stored at −20° C. until analysis.” for “equipment.”
• Species and strain: CD(SD)IGS BR rat • sex of animals: males • Weight and age at treatment: 306-376 g (10-14 weeks old) • Supplier: Charles River Laboratories, Calco (LC), Italy
(§2) Rats were used to determine the pharmacokinetic parameters after administration of three different histidine doses (100, 500 and 1000 mg/kg, three animals for each group).
Plasma concentrations of Histidine as a function of time after injection C(t), were analyzed by non-parametric methods using the computer program WIN-NONLIN 4.0.1. For the tested doses, a non-compartmental analysis was performed using the average plasma concentrations from 3 animals for each time point (except when indicated). For Cmax (peak plasma concentration) and the corresponding tmax ([…]) the observed values were reported. The terminal phase elimination rate constant (λz) was estimated by log-linear regression of those data points visually assessed to be in the terminal phase of the profile. At least three terminal plasma concentrations were used for estimating λz. The terminal elimination half life (t ½ λz, time required for a drug to decline to half of its original plasma value) was calculated as t ½ λz=In 2/λz. Area under the plasma concentration-time curve to the last observable plasma concentration (AUC(0 to t)) was calculated from observed data using the logarithmic trapezoidal method. Total area under the plasma concentration-time curve from zero to infinity (AUC(0 to ∞)) was estimated by AUC(0 to ∞) =AUC(0 to t) +ct/λz, where ct is the predicted concentration at the last quantified time point. AUC defines extent of drug exposure.

[2] = Clinical signs in the pharmacokinetic study after oral histidine; format: in vivo, CD(SD)IGS BR rat; settings: rat, up to 1000 mg/kg
Method: as §2

[3] = system: Gd(DTPA-BMA) and Gd(DTPA) complexes with Cu(II); test: Kinetics of transmetallation of Gd(DTPA) and Gd(DTPA-BMA) with Cu(II) in the presence of citrate and histidine (spectrophotometry, 300 nm); format: physicochemical; settings: [GdL]=2.0 mM, [Cu]=0.1 mM, [cit]=2.0 mM, [His]=0.2-0.8 mM, pH 7.0, 25° C., 0.15 M NaCl
Method: In order to have some clues on the kinetics of a possible transmetallation reactions in the presence of citrate (an important counter-ion present in plasma and found to be highly interactive with Gd^3+) and increasing amounts of histidine, the rates of the following reactions have been studied: GdL+Cu^2++His+cit⇄CuL+Gd(cit)+His (1)
In the experiment, the concentration used for Gd^3+ complex (GdL), citrate and Cu^2+ were: 2.0, 2.0 and 0.1 mM, respectively, while the concentration of His was varied (0.2, 0.4, 0.6 and 0.8 mM).
The progress of the exchange reactions (1) has been studied by spectrophotometry (Cary 1E spectrophotometer) at 300 nm, with the use of 1.0 cm quartz cell at 25° C. in 0.15 M NaCl in the pH range 6-8. […]

Gd(DTPA-BMA) = test: Dissociation of Gd(DTPA-BMA) in artificial plasma, relaxivity at 20 MHz; format: physicochemical; settings: pH 7.5, 37° C.
[4] = for changes in Gd^3+ content in liver and spleen: versus group 1; for % ID in femour, mean / Gadolinium content in femour, mean: p < 0.01 vs group 1; for Gadolinium content in skin, mean: p < 0.05 vs group 1
Text: L-Histidine was orally administered by gavage, while Omniscan® was intravenously administered.
On the day of scheduled sacrifice, animals were anesthetized with an inhalation agent, sevoflurane, at an respiratory concentration of 3% in induction and 1-2% in maintenance and bled after collection of blood from the abdominal aorta. After exsanguination, liver, spleen, femur and skin of all animals were excised, weighed and prepared for ICP-MS determination of gadolinium content. Sample digestion (spleen and femur) was performed by a microwave system (MARS-5 CEM Corporation).
Liver and skin samples were freeze-dried with a lyophilizer (Alpha-1-2LD Plus, CHRIST) after being frozen at −80° C. for at least 1 h. After drying, dehydrated livers were weighed and then ground in a mortar.
Gadolinium content in organs was reported as μg of Gd.

[5] = rat, oral histidine 4.38 mmol/kg and iv Omniscan 1 mmol/kg
[6] = cited from earlier work
[7] = cited from earlier work; remark: listed apart in the source
Cu(His)2 = test: Exchange reaction between Gd(DTPA-BMA) and Cu(His)2 without and with citrate (UV spectrum); format: physicochemical; settings: Cu(His)2 0.2 mM, Gd(DTPA-BMA) 2.0 mM, pH 6.5, 25° C., 0.15 M NaCl
Method: FIG. 3. The UV spectrum of Cu(His)2 in the presence of Gd(DTPA-BMA) excess (Panel A) and in the presence of citrate and Gd(DTPA-BMA) excess (Panel B). (Cu(His)2=0.2 mM, Gd(DTPA-BMA)=2.0 mM) (A). (Cu(His)2=0.2 mM, Gd(DTPA-BMA)=2.0 mM, Citrate=2.0 mM) (B). pH=6.5, 25° C., 0.15 M NaCl.
It is possible to conclude that in body fluids transmetallation reactions may take place between the DTPA-derivative Gd^3+ complexes and endogenous metal ions, like Cu^2+ and Zn^2+. The possibility of the transmetallation reactions can be predicted on the basis of the stability constants of complexes formed between the most important endogenous metals and ligands. The stability constants have been determined for the Gd^3+, Cu^2+ and Zn^2+ complexes of the DTPA, DTPA-BMA, citrate and histidine ligands. […] The species distribution calculations have been experimentally verified by following the exchange reactions between Gd(DTPA-BMA) and Cu(His)2 in the absence and presence of citrate.

[8] = group 2, histidine pretreatment at 30 min
[9] = group 2: oral histidine 4.38 mmol/kg 30 min before Omniscan 1 mmol/kg iv, 24 h
[10] = group 2: oral histidine 4.38 mmol/kg 30 min before Omniscan 1 mmol/kg iv, 24 h, listed as Histidine
[11] = group 2: oral histidine 4.38 mmol/kg 30 min before Omniscan 1 mmol/kg iv, 24 h, listed as histidine
[12] = histidine 30 min before Omniscan versus no histidine pretreatment

N[C@@H](Cc1c[nH]cn1)C(=O)O [L-Histidine]
Tmax ([1]; 100 mg/kg): 0.5 h
Tmax ([1]; 1000 mg/kg): 0.5 h
AUC(0-inf) ([1]; Histidine 100 mg/kg): 550 µg·h/mL
Cmax ([1]; Histidine 100 mg/kg (0.438 mmol/kg)): 9000 ng/mL
AUC(0-inf) ([1]; Histidine 500 mg/kg): 630 µg·h/mL
Tmax ([1]; Histidine 500 mg/kg): 1 h
Cmax ([1]; Histidine 500 mg/kg (2.192 mmol/kg)): 20900 ng/mL
AUC(0-inf) ([1]; Histidine 1000 mg/kg): 390 µg·h/mL
Cmax ([1]; Histidine 1000 mg/kg (4.38 mmol/kg)): 36000 ng/mL
t1/2λz ([1]; Histidine 100 mg/kg (Table A)): 51 h
t1/2λz ([1]; Histidine 500 mg/kg (Table A)): 47 h
t1/2λz ([1]; Histidine 1000 mg/kg (Table A)): 13 h
total plasma clearance ([1]; 100 mg/kg): 3 mL/min/kg
total plasma clearance ([1]; 500 mg/kg): 13.2 mL/min/kg
total plasma clearance ([1]; 1000 mg/kg): 42.7 mL/min/kg
clinical signs [2]: No clinical signs were observed
extent (conversion) of the transmetallation reactions, CuL formed ([3]; listed as Histidine): decrease
rates of the transmetallation reactions ([3]; listed as Histidine): decrease
extent (conversion) of the transmetallation reactions, CuL formed ([3]; listed as histidine): significantly decrease; also recorded: decrease with increasing concentration of histidine
rates of the transmetallation reactions ([3]; listed as histidine): significantly decrease; also recorded: decrease with increasing concentration of histidine
effect on the increase of relaxivity / extent of dissociation of Gd(DTPA-BMA) (Gd(DTPA-BMA); histidine 0.5 mM and 1.0 mM added to artificial plasma with 1.0 mM Gd(DTPA-BMA)): concentration dependent drop in the increase of the relaxivity values; also recorded: significantly decreases
% ID in liver, spleen and skin versus group 1 [4, 8]: not significantly different
changes in Gd^3+ content in liver and spleen [4, 8]: no significant changes
% ID in liver, mean [4, 9]: 0.1094 % ID
% ID in skin, mean [4, 9]: 0.0067 % ID
% ID in spleen, mean [4, 9]: 0.00478 % ID
Gadolinium content in liver, mean [4, 9]: 20.7 nmol/g of tissue
Gadolinium content in spleen, mean [4, 9]: 20.0 nmol/g of tissue
% ID in femour, mean [4, 10]: 0.00166** % ID
Gadolinium content in femour, mean [4, 10]: 6.90** nmol/g of tissue
% ID in femour, mean [4, 11]: 0.00166 % ID
Gadolinium content in femour, mean [4, 11]: 6.90 nmol/g of tissue
Gadolinium content in skin, mean [4, 10]: 11.25* nmol/g of tissue
Gadolinium content in skin, mean [4, 11]: 11.25 nmol/g of tissue
changes in Gd^3+ content in liver and spleen ([4]; group 3, histidine pretreatment at 1 h): no significant changes
decrease in Gd^3+ content in femur (nmol/g tissue) [4, 12]: about 40%
decrease of % ID in femour [4, 12]: about 40%
effect on Gd^3+ accumulation ([4]; histidine treatment 60 min before Omniscan administration): didn't show, in this model, any effect
mortality and clinical signs [5]: No mortalities nor changes in clinical signs
time to peak levels after oral administration ([6]; L-Histidine in the salt form (HCl), oral route): 30 to 45 min
AUC(0 to ∞) ([6]; healthy volunteers, single oral administration of Histidine at 100 mg/kg): 477 µg·h/mL
serum parameters including protein bound zinc, serum and urinary zinc levels ([7]; human subjects, L-histidine up to 4 g/day, 15-days treatment): not shown to be grossly altered
adverse effects ([7]; humans, oral, up to 4-6 g/day for several days): neither important adverse effects nor minor inconveniences

CNC(=O)CN(CCN(CCN(CC(=O)[O-])CC(=O)NC)CC(=O)[O-])CC(=O)[O-].[Gd+3] [Omniscan ®, Gadodiamide]
relaxivity values as a function of time (dissociation of the complex) (Gd(DTPA-BMA); 1.0 mM Gd(DTPA-BMA) in artificial plasma, no added histidine): relaxivity values increase as a function of time
changes of the UV spectrum of Cu(His)2 (transmetallation) (Cu(His)2; citrate 2.0 mM): the transmetallation reaction takes place
changes of the UV spectrum of Cu(His)2 (transmetallation) (Cu(His)2; no citrate): no changes
